US10251394B2, “Molecules having pesticidal utility, and intermediates, compositions, and processes, related thereto” (Dow AgroSciences LLC, priority 2016, dated 2019)

What was measured:
[1] = tested on: Cabbage Looper (Trichoplusia ni); assay: Bioassay on Cabbage Looper (CL), 128-well diet tray assay; type: in vivo; settings: for mortality at 0.05 µg/cm2 / mortality at 0.5 µg/cm2 / mortality at 5 µg/cm2: 168 h, second instar larvae, five to seven days, read-out: CL Percent control (or mortality); for mortality at 0.05 µg/cm2: 0.05 μg/cm^2 on artificial diet; for mortality at 0.5 µg/cm2: 0.5 μg/cm^2 on artificial diet; for mortality at 5 µg/cm2: 5 μg/cm^2 on artificial diet; for pest or weed control at 50 µg/cm2: Cabbage Looper, Table ABC, read-out: CL rating
Experimental: (§1) Example A: Bioassays on Beet Armyworm (Spodoptera Exigua, LAPHEG) (“BAW”), Corn Earworm (Helicoverpa Zea, HELIZE) (“CEW”), and Cabbage Looper (Trichoplusia Ni, TRIPNI) (“CL”)
(§2) Certain molecules disclosed in this document were tested against BAW, CEW, and CL using procedures described in the following examples. In the reporting of the results, the “BAW, CEW, & CL Rating Table” was used (See Table Section).
Bioassays on CL were conducted using a 128-well diet tray assay. One to five second instar CL larvae were placed in each well (3 mL) of the diet tray that had been previously filled with 1 mL of artificial diet to which 50 μg/cm^2 of the test molecule (dissolved in 50 μL of 90:10 acetone-water mixture) had been applied (to each of eight wells) and then allowed to dry. Trays were covered with a clear self-adhesive cover and held at 25° C., 14:10 light-dark for five to seven days. Percent mortality was recorded for the larvae in each well; activity in the eight wells was then averaged. The results are indicated in the table entitled “Table ABC: Biological Results” (See Table Section).
(§3) Bioassays on BAW and CL were conducted according to the procedures outlined in Example A: Bioassays on Beet Armyworm (“BAW”) and Cabbage Looper (“CL”) using the indicated concentrations.

[2] = tested on: Beet Armyworm (Spodoptera exigua); assay: Bioassay on Beet Armyworm (BAW), 128-well diet tray assay; type: in vivo; settings: for mortality at 0.05 µg/cm2 / mortality at 0.5 µg/cm2 / mortality at 5 µg/cm2: 168 h, second instar larvae, five to seven days, read-out: BAW Percent control (or mortality); for mortality at 0.05 µg/cm2: 0.05 μg/cm^2 on artificial diet; for mortality at 0.5 µg/cm2: 0.5 μg/cm^2 on artificial diet; for mortality at 5 µg/cm2: 5 μg/cm^2 on artificial diet; for pest or weed control at 50 µg/cm2: Beet Armyworm, Table ABC, read-out: BAW rating
Experimental: as §1, §2
Bioassays on BAW were conducted using a 128-well diet tray assay. One to five second instar BAW larvae were placed in each well (3 mL) of the diet tray that had been previously filled with 1 mL of artificial diet to which 50 μg/cm^2 of the test molecule (dissolved in 50 μL of 90:10 acetone-water mixture) had been applied (to each of eight wells) and then allowed to dry. Trays were covered with a clear self-adhesive cover and held at 25° C., 14:10 light-dark for five to seven days. Percent mortality was recorded for the larvae in each well; activity in the eight wells was then averaged. The results are indicated in the table entitled “Table ABC: Biological Results” (See Table Section).
as §3

| SMILES | mortality at 0.05 µg/cm2 [1] | mortality at 0.5 µg/cm2 [1] | mortality at 5 µg/cm2 [1] | pest or weed control at 50 µg/cm2 [1] | mortality at 0.05 µg/cm2 [2] | mortality at 0.5 µg/cm2 [2] | mortality at 5 µg/cm2 [2] | pest or weed control at 50 µg/cm2 [2] |
| --- | --- | --- | --- | --- | --- | --- | --- | --- |
| O=C(CNC(=O)c1ccc(/C(F)=C/C(c2cc(Cl)c(Cl)c(Cl)c2)C(F)(F)F)cc1C(F)(F)F)NCC(F)(F)F (stereo not shown) [F1, (Z)—N-(2-oxo-2-((2,2,2-trifluoroethyl)amino)ethyl)-4-(1,4,4,4-tetrafluoro-3-(3,4,5-trichlorophenyl)but-1-en-1-yl)-2-(trifluoromethyl)benzamide] | 100% | 100% | 100% | 50 to 100% | 100% | 100% | 100% | 50 to 100% |
| C[C@@H](NC(=O)c1ccc(/C(F)=C/C(c2cc(Cl)c(Cl)c(Cl)c2)C(F)(F)F)cc1C(F)(F)F)C(=O)NCC(F)(F)F (stereo partly drawn) [F2, N—((R)-1-Oxo-1-((2,2,2-trifluoroethyl)amino)propan-2-yl)-4-((Z)-1,4,4,4-tetrafluoro-3-(3,4,5-trichlorophenyl)but-1-en-1-yl)-2-(trifluoromethyl)benzamide] | 100% | 100% | 100% | 50 to 100% | 100% | 100% | 100% | 50 to 100% |
| O=C(NC1(C(=O)NCCC2CC2)CC1)c1ccc(/C(F)=C/C(c2cc(Cl)c(Cl)c(Cl)c2)C(F)(F)F)cc1C(F)(F)F (stereo not shown) [F4, (Z)—N-(1-((2-cyclopropylethyl)carbamoyl)cyclopropyl)-4-(1,4,4,4-tetrafluoro-3-(3,4,5-trichlorophenyl)but-1-en-1-yl)-2-(trifluoromethyl)benzamide] | – | – | – | 50 to 100% | – | – | – | 50 to 100% |
| C=CCNC(=O)C1(NC(=O)c2ccc(/C(F)=C/C(c3cc(Cl)c(Cl)c(Cl)c3)C(F)(F)F)cc2C(F)(F)F)CC1 (stereo not shown) [F5, (Z)—N-(1-(Allylcarbamoyl)cyclopropyl)-4-(1,4,4,4-tetrafluoro-3-(3,4,5-trichlorophenyl)but-1-en-1-yl)-2-(trifluoromethyl)benzamide] | – | – | – | 50 to 100% | – | – | – | 50 to 100% |
| Cc1cc(/C(F)=C/C(c2cc(Cl)c(Cl)c(Cl)c2)C(F)(F)F)ccc1C(=O)NCC(=O)NCC(F)(F)F (stereo not shown) [F6, (Z)-2-Methyl-N-(2-oxo-2-((2,2,2-trifluoroethyl)amino)ethyl)-4-(1,4,4,4-tetrafluoro-3-(3,4,5-trichlorophenyl)but-1-en-1-yl)benzamide] | 100% | 100% | – | 50 to 100% | 100% | 100% | – | 50 to 100% |
| Cc1cc(/C(F)=C/C(c2cc(Cl)c(Cl)c(Cl)c2)C(F)(F)F)ccc1C(=O)N[C@H](C)C(=O)NCC(F)(F)F (stereo partly drawn) [F7, 2-Methyl-N—((R)-1-oxo-1-((2,2,2-trifluoroethyl)amino)propan-2-yl)-4-((Z)-1,4,4,4-tetrafluoro-3-(3,4,5-trichlorophenyl)but-1-en-1-yl)benzamide] | 100% | 100% | – | 50 to 100% | 100% | 100% | – | 50 to 100% |
| Cc1cc(/C(F)=C/C(c2cc(Cl)c(Cl)c(Cl)c2)C(F)(F)F)ccc1C(=O)NC1(C(=O)NCC(F)(F)F)CC1 (stereo not shown) [F8, (Z)-2-Methyl-4-(1,4,4,4-tetrafluoro-3-(3,4,5-trichlorophenyl)but-1-en-1-yl)-N-(1-((2,2,2-trifluoroethyl)carbamoyl)cyclopropyl)benzamide] | – | – | – | 50 to 100% | – | – | – | 50 to 100% |
| C=CCNC(=O)C1(NC(=O)c2ccc(/C(F)=C/C(c3cc(Cl)c(Cl)c(Cl)c3)C(F)(F)F)cc2C)CC1 (stereo not shown) [F9, (Z)—N-(1-(Allylcarbamoyl)cyclopropyl)-2-methyl-4-(1,4,4,4-tetrafluoro-3-(3,4,5-trichlorophenyl)but-1-en-1-yl)benzamide] | – | – | – | 50 to 100% | – | – | – | 50 to 100% |
| Cc1cc(/C(F)=C/C(c2cc(Cl)c(Cl)c(Cl)c2)C(F)(F)F)ccc1C(=O)NC1(C(=O)NCCC2CC2)CC1 (stereo not shown) [F10, (Z)—N-(1-((2-Cyclopropylethyl)carbamoyl)cyclopropyl)-2-methyl-4-(1,4,4,4-tetrafluoro-3-(3,4,5-trichlorophenyl)but-1-en-1-yl)benzamide] | – | – | – | 50 to 100% | – | – | – | 50 to 100% |
| C=CCNC(=O)[C@@H](C)NC(=O)c1ccc(/C(F)=C/C(c2cc(Cl)c(Cl)c(Cl)c2)C(F)(F)F)cc1C(F)(F)F (stereo partly drawn) [F11, N—((R)-1-(Allylamino)-1-oxopropan-2-yl)-4-((Z)-1,4,4,4-tetrafluoro-3-(3,4,5-trichlorophenyl)but-1-en-1-yl)-2-(trifluoromethyl)benzamide] | – | – | – | 50 to 100% | – | – | – | 50 to 100% |
| C[C@@H](NC(=O)c1ccc(/C(F)=C/C(c2cc(Cl)c(Cl)c(Cl)c2)C(F)(F)F)cc1C(F)(F)F)C(=O)NCCC1CC1 (stereo partly drawn) [F12, N—((R)-1-((2-Cyclopropylethyl)amino)-1-oxopropan-2-yl)-4-((Z)-1,4,4,4-tetrafluoro-3-(3,4,5-trichlorophenyl)but-1-en-1-yl)-2-(trifluoromethyl)benzamide] | – | – | – | 50 to 100% | – | – | – | 50 to 100% |
| C[C@@H](NC(=O)c1ccc(/C(F)=C/C(c2cc(Cl)c(Cl)c(Cl)c2)C(F)(F)F)cc1C(F)(F)F)C(=O)N(C)CC(F)(F)F (stereo partly drawn) [F13, N—((R)-1-(Methyl(2,2,2-trifluoroethyl)amino)-1-oxopropan-2-yl)-4-((Z)-1,4,4,4-tetrafluoro-3-(3,4,5-trichlorophenyl)but-1-en-1-yl)-2-(trifluoromethyl)benzamide] | – | – | – | 50 to 100% | – | – | – | 50 to 100% |
| C=CCNC(=O)[C@@H](C)NC(=O)c1ccc(/C(F)=C/C(c2cc(Cl)c(Cl)c(Cl)c2)C(F)(F)F)cc1C (stereo partly drawn) [F14, N—((R)-1-(Allylamino)-1-oxopropan-2-yl)-2-methyl-4-((Z)-1,4,4,4-tetrafluoro-3-(3,4,5-trichlorophenyl)but-1-en-1-yl)benzamide] | – | – | – | 50 to 100% | – | – | – | 50 to 100% |
| Cc1cc(/C(F)=C/C(c2cc(Cl)c(Cl)c(Cl)c2)C(F)(F)F)ccc1C(=O)N[C@H](C)C(=O)NCCC1CC1 (stereo partly drawn) [F15, N—((R)-1-((2-Cyclopropylethyl)amino)-1-oxopropan-2-yl)-2-methyl-4-((Z)-1,4,4,4-tetrafluoro-3-(3,4,5-trichlorophenyl)but-1-en-1-yl)benzamide] | – | – | – | 50 to 100% | – | – | – | 50 to 100% |
| CCCCNC(=O)[C@@H](C)NC(=O)c1ccc(/C(F)=C/C(c2cc(Cl)c(Cl)c(Cl)c2)C(F)(F)F)cc1C(F)(F)F (stereo partly drawn) [F16, N—((R)-1-(Butylamino)-1-oxopropan-2-yl)-4-((Z)-1,4,4,4-tetrafluoro-3-(3,4,5-trichlorophenyl)but-1-en-1-yl)-2-(trifluoromethyl)benzamide] | – | – | – | 50 to 100% | – | – | – | 50 to 100% |
| C[C@@H](NC(=O)c1ccc(/C(F)=C\C(c2cc(Cl)c(Cl)c(Cl)c2)C(F)(F)F)cc1C(F)(F)F)C(=O)NCC(F)(F)F (stereo partly drawn) [F17, N—((R)-1-oxo-1-((2,2,2-trifluoroethyl)amino)propan-2-yl)-4-((E)-1,4,4,4-tetrafluoro-3-(3,4,5-trichlorophenyl)but-1-en-1-yl)-2-(trifluoromethyl)benzamide] | – | – | – | 50 to 100% | – | – | – | 50 to 100% |
